Experimental data from patent US11221326B2 (TOPPAN PRINTING CO., LTD., priority 2016, dated 2022).

System: human lung cancer cell line NCI-H1975
Experiment: Drug sensitivity by viable count analysis (CNT %), NCI-H1975 cells cultured with exosomes (Example 3)
Type: cell-based
Conditions: Gefitinib 10 μM, 72 hours
Method: As a cell culture vessel, a Transwell cell culture insert (#3470 manufactured by Corning Incorporated) was used. The culture medium used was D-MEM (043-30085 manufactured by Wako Pure Chemical Corporation) containing 10 vol/vol % of bovine serum (EXO-FBS-50A-1 manufactured by System Biosciences, LLC), and 1 vol/vol % of penicillin-streptomycin (168-23191 manufactured by Wako Pure Chemical Corporation).
Drugs were each assessed three times using a final concentration of 10 μM of Gefitinib.
As exosomes derived from drug resistant cell line, ones recovered from the culture supernatant of human lung cancer cell line A549 (ATCC No.: CCL-185)) by ultracentrifugation were used. Assessments were conducted with respect to two conditions of 0 exosomes (no addition of the exosomes derived from the drug resistant cell line), and 1×10^9 exosomes.
In viable count analysis, drug sensitivity was assessed, as in Example 1, by using a trypan blue solution and by counting cells in the fluorescence mode of a cell counter (Countess II) manufactured by Life Technologies Inc. In the drug sensitivity assessment,CNT(cell viability)%=(viable count with addition of drug)/(viable count with addition of no drug)×100(%) was used as an assessment value.
As a reference, cells with an addition of 1×10^9 exosomes derived from the serum of a healthy person were also assessed.
(1) 2×10^4 NCI-H1975 cells were seeded in a Transwell cell culture insert.
(2) An appropriate amount of culture medium was added to the Transwell cell culture insert, followed by culturing in a CO2 incubator (37° C., 5% CO2) for 24 hours.
(1) An appropriate amount of culture medium was mixed with exosomes to prepare exosome medium solutions containing 0 exosomes (no addition of exosomes derived from a drug resistant cell line) and 1×10^9 exosomes.
(2) Each solution was added to the Transwell cell culture insert, followed by culturing in a CO2 incubator (37° C., 5% CO2) for 24 hours.
(1) An appropriate amount of the culture medium was mixed with a drug so as to have a final concentration of […]. […]

COc1cc2ncnc(Nc3ccc(F)c(Cl)c3)c2cc1OCCCN1CCOCC1 [Gefitinib]
CNT (%) Average value (0 exosomes): 59.9%
CNT (%) Average value (1 × 10^9 exosomes derived from A549): 89.2%
CNT (%) Average value (1 × 10^9 exosomes derived from serum of healthy person): 57.7%
